{"source": "patent US20200093808A1", "about": "“Methods for the Administration of Certain VMAT2 Inhibitors” (Neurocrine Biosciences, Inc., priority 2017, published 2020)", "key": {"[1]": {"assay": "Phase 1 open-label drug interaction study: effect of ketoconazole on the pharmacokinetics of NBI-98854 in healthy subjects", "type": "in vivo, human", "conditions": "for half-life: read-out: t1/2 Mean (SD) (converted); for CL/F Mean (SD): analyte NBI-98854; for AUC(0-inf): read-out: AUC0-∞ Mean (SD); for Cmax: read-out: Cmax Mean (SD)", "protocol": "All subjects received the same treatment. […] Subjects were given meals upon completion of study assessments/dosing and at regular meal times during their stay in the research unit. […] Blood specimens to determine ketoconazole plasma concentrations were collected predose through Day 9. Safety and tolerability was assessed through Day 10. […] The tmax was analyzed using non-parametric methods. […] Safety data were summarized using descriptive statistics."}, "human VMAT1 transporter": {"biological_target": "T1, human VMAT1 transporter (Homo sapiens, UniProt P54219)", "T1 construct": "expressed in transfected cells", "T1 sequence (P54219 1-525)": "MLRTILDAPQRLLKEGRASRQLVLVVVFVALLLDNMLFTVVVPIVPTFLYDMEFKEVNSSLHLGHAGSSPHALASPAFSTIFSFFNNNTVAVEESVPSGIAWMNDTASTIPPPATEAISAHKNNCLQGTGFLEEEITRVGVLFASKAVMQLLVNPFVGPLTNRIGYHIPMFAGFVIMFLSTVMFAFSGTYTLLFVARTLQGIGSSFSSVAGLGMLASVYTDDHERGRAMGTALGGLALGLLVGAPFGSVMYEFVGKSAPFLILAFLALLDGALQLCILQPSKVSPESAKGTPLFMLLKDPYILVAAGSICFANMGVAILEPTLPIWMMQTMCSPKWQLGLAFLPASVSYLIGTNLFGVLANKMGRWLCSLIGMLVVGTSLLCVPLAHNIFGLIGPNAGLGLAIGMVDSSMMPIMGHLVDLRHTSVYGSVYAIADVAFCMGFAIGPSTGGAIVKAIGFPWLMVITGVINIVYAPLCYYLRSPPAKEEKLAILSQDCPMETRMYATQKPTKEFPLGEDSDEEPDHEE", "assay": "Uptake in cells expressing VMAT1", "type": "cell-based", "conditions": "concentrations up to 10 μM"}, "[2]": {"system": "more than 80 targets (GPCRs, cell-surface monoamine transporters, ion channels including HERG)", "assay": "Cerep multi-target activity screen", "conditions": "broad panel screen"}, "[3]": {"assay": "Safety and tolerability in the Phase 1 ketoconazole interaction study", "type": "in vivo", "conditions": "for Subjects with TEAE: Constipation / Subjects with TEAE: Dizziness postural / Subjects with TEAE: Gastrointestinal Disorders / Subjects with TEAE: Headache / Subjects with TEAE: Injury, Poisoning and Procedural Complications / Subjects with TEAE: Nausea / Subjects with TEAE: Nervous System Disorders / Subjects with TEAE: Procedural dizziness / Subjects with treatment-emergent adverse event: Overall: N = 24", "protocol": "This was a Phase 1, single-center, open-label, drug interaction study conducted in 24 healthy male and female subjects.\nAll subjects received the same treatment. Subjects received a single dose of 50 mg NBI-98854 on Days 1 and 6 at approximately 0800 hours. In addition, subjects received 200 mg ketoconazole twice daily (bid) on Days 5 through 9 at approximately 0800 and 2000 hours. Subjects were required to fast overnight from approximately 10 hours before until 4 hours after NBI-98854 dose on Days 1 and 6. Subjects were given meals upon completion of study assessments/dosing and at regular meal times during their stay in the research unit.\nTEAEs are summarized below. There were no pretreatment AEs. […] Five subjects (20.8%) experienced 6 AEs during the study; all AEs occurred after the initial treatment with NBI-98854 alone. […] The only AE that occurred in >1 subject was headache (2 subjects, 8.3%). […] Two events were considered possibly related to study drug, 1 event of headache and the event of dizziness postural. The other event of headache was considered unlikely related to study drug."}, "[4]": {"conditions": "NBI-98854 (50 mg) + Ketoconazole (200 mg)"}, "[5]": {"conditions": "both sexes, human, oral, analyte NBI-98854 in plasma, NBI-98854 (50 mg) alone, N = 24"}, "[6]": {"conditions": "both sexes, human, oral, analyte NBI-98854 in plasma, NBI-98854 (80 mg) + Ketoconazole (200 mg), N = 24"}}, "note": "Entries after “also recorded” stand apart in the source; their conditions may differ. Where two headings read alike, the source gives them in different places.", "data": [{"smiles": "CC(=O)N1CCN(c2ccc(OCC3COC(Cn4ccnc4)(c4ccc(Cl)cc4Cl)O3)cc2)CC1", "note": "(centres unmarked) [Ketoconazole, ketoconazole, reference compound]", "values": [{"measurement": "concentration at 1 h", "setting": "[1]; both sexes, human, plasma, oral, 200 mg ketoconazole bid, Days 5 to 9 at 1 hour postdose, read-out: Mean plasma concentrations of ketoconazole", "result": "1640 to 5180", "unit": "ng/mL"}]}, {"smiles": "COc1cc2c(cc1OC)[C@H]1C[C@@H](O)[C@H](CC(C)C)CN1CC2", "note": "[NBI-98782, (2R, 3R,11bR)-3-isobutyl-9,10-dimethoxy-1,3,4,6,7,11b-hexahydro-2H-pyrido[2,1-a]isoquinolin-2-ol]", "values": [{"measurement": "inhibition of uptake through VMAT1", "setting": "human VMAT1 transporter; listed as R,R,R-DHTBZ", "result": "no significant inhibitory activity; also recorded: no significant effect"}, {"measurement": "affinity for more than 80 binding sites, including receptors, monoamine transporters, and ion channels", "setting": "[2]", "result": "little to no affinity"}, {"measurement": "half-life", "setting": "[1]; both sexes, human, plasma, oral, 50 mg", "result": 18, "unit": "h"}]}, {"smiles": "COc1cc2c(cc1OC)[C@H]1C[C@@H](OC(=O)[C@@H](N)C(C)C)[C@H](CC(C)C)CN1CC2", "note": "[NBI-98854, (S)-2-amino-3-methyl-butyric acid (2R, 3R,11bR)-3-isobutyl-9,10-dimethoxy-1,3,4,6,7,11b-hexahydro-2H-pyrido[2,1-a]isoquinolin-2-yl ester]", "values": [{"measurement": "Subjects with headache (only AE in >1 subject)", "setting": "[3]; 2 subjects", "result": 8.3, "unit": "%"}, {"measurement": "Subjects with TEAE: Constipation", "setting": "[3]; [4]", "result": "0 n, %"}, {"measurement": "Subjects with TEAE: Dizziness postural", "setting": "[3]; [4]", "result": "0 n, %"}, {"measurement": "Subjects with TEAE: Gastrointestinal Disorders", "setting": "[3]; [4]", "result": "0 n, %"}, {"measurement": "Subjects with TEAE: Headache", "setting": "[3]; [4]", "result": "0 n, %"}, {"measurement": "Subjects with TEAE: Injury, Poisoning and Procedural Complications", "setting": "[3]; [4]", "result": "0 n, %"}, {"measurement": "Subjects with TEAE: Nausea", "setting": "[3]; [4]", "result": "0 n, %"}, {"measurement": "Subjects with TEAE: Nervous System Disorders", "setting": "[3]; [4]", "result": "0 n, %"}, {"measurement": "Subjects with TEAE: Procedural dizziness", "setting": "[3]; [4]", "result": "0 n, %"}, {"measurement": "Subjects with treatment-emergent adverse event: Overall", "setting": "[3]; [4]", "result": "0 n, %"}, {"measurement": "Subjects with TEAE: Constipation", "setting": "[3]; NBI-98854 (50 mg)", "result": "1 (4.2) n, %"}, {"measurement": "Subjects with TEAE: Dizziness postural", "setting": "[3]; NBI-98854 (50 mg)", "result": "1 (4.2) n, %"}, {"measurement": "Subjects with TEAE: Gastrointestinal Disorders", "setting": "[3]; NBI-98854 (50 mg)", "result": "2 (8.3) n, %"}, {"measurement": "Subjects with TEAE: Headache", "setting": "[3]; NBI-98854 (50 mg)", "result": "2 (8.3) n, %"}, {"measurement": "Subjects with TEAE: Injury, Poisoning and Procedural Complications", "setting": "[3]; NBI-98854 (50 mg)", "result": "1 (4.2) n, %"}, {"measurement": "Subjects with TEAE: Nausea", "setting": "[3]; NBI-98854 (50 mg)", "result": "1 (4.2) n, %"}, {"measurement": "Subjects with TEAE: Nervous System Disorders", "setting": "[3]; NBI-98854 (50 mg)", "result": "3 (12.5) n, %"}, {"measurement": "Subjects with TEAE: Procedural dizziness", "setting": "[3]; NBI-98854 (50 mg)", "result": "1 (4.2) n, %"}, {"measurement": "Subjects with treatment-emergent adverse event: Overall", "setting": "[3]; NBI-98854 (50 mg)", "result": "5 (20.8) n, %"}, {"measurement": "Tolerability", "setting": "[3]; administered alone and concomitantly with ketoconazole in healthy volunteers", "result": "well tolerated"}, {"measurement": "Subjects who experienced AEs during the study", "setting": "[3]; all AEs after the initial treatment with NBI-98854 alone, onset Day 1 or 2, five subjects, 6 AEs", "result": 20.8, "unit": "%"}, {"measurement": "12-lead ECGs", "setting": "[3]; during the study", "result": "no abnormal ECGs that were assessed as clinically significant"}, {"measurement": "Body weight changes", "setting": "[3]; during the study", "result": "no important changes in body weight"}, {"measurement": "Physical examination findings", "setting": "[3]; during the study", "result": "No abnormal physical examination findings"}, {"measurement": "Vital signs including orthostatic changes", "setting": "[3]; postdose", "result": "No clinically relevant postdose mean vital signs changes"}, {"measurement": "Clinical laboratory values (hematology, serum chemistry, urinalysis)", "setting": "[3]; pre- and postdose", "result": "no results considered clinically significant"}, {"measurement": "Deaths, SAEs, discontinuations due to an AE", "setting": "[3]; whole study", "result": "no deaths, SAEs, or discontinuations due to an AE"}, {"measurement": "Intensity of AEs", "setting": "[3]; whole study", "result": "mild in intensity"}, {"measurement": "inhibition of uptake through VMAT1", "setting": "human VMAT1 transporter; listed as VBZ", "result": "no significant inhibitory activity; also recorded: no significant effect"}, {"measurement": "affinity for more than 80 binding sites, including receptors, monoamine transporters, and ion channels", "setting": "[2]", "result": "little to no affinity"}, {"measurement": "CL/F Mean (SD)", "setting": "[1]; NBI-98854 (50 mg) alone, N = 24", "result": "16.3 (5.94) L/hr"}, {"measurement": "CL/F Mean (SD)", "setting": "[1]; NBI-98854 (80 mg) + Ketoconazole (200 mg), N = 24", "result": "7.96 (2.75) L/hr"}, {"measurement": "Tlag Mean (SD)", "setting": "[1]; analyte NBI-98854 in plasma, NBI-98854 (50 mg) alone, N = 24", "result": "0.11 (0.13) hours"}, {"measurement": "Tlag Mean (SD)", "setting": "[1]; analyte NBI-98854 in plasma, NBI-98854 (80 mg) + Ketoconazole (200 mg), N = 24", "result": "0.02 (0.07) hours"}, {"measurement": "AUC(0-inf)", "setting": "[1]; [5]", "result": 3470, "unit": "ng·h/mL"}, {"measurement": "Cmax", "setting": "[1]; [5]", "result": 425, "unit": "ng/mL"}, {"measurement": "AUC(0-inf)", "setting": "[1]; [6]", "result": 7340, "unit": "ng·h/mL"}, {"measurement": "Cmax", "setting": "[1]; [6]", "result": 624, "unit": "ng/mL"}, {"measurement": "MRT", "setting": "[1]; both sexes, human, oral, analyte NBI-98854 in plasma, NBI-98854 (80 mg) + Ketoconazole (200 mg), N = 24, read-out: MRT Mean (SD)", "result": 22, "unit": "h"}, {"measurement": "half-life", "setting": "[1]; [6]", "result": 20, "unit": "h"}, {"measurement": "AUC(0-t)", "setting": "[1]; both sexes, human, plasma, oral, 50 mg, analyte NBI-98854 in plasma, NBI-98854 (50 mg) alone, N = 24, read-out: AUC0-24 Mean (SD)", "result": 2580, "unit": "ng·h/mL"}, {"measurement": "AUC(0-t)", "setting": "[1]; both sexes, human, plasma, oral, 50 mg, analyte NBI-98854 in plasma, NBI-98854 (50 mg) alone, N = 24, read-out: AUC0-tlast Mean (SD)", "result": 3420, "unit": "ng·h/mL"}, {"measurement": "AUC(0-t)", "setting": "[1]; both sexes, human, plasma, oral, analyte NBI-98854 in plasma, NBI-98854 (80 mg) + Ketoconazole (200 mg), N = 24, read-out: AUC0-24 Mean (SD)", "result": 4820, "unit": "ng·h/mL"}, {"measurement": "AUC(0-t)", "setting": "[1]; both sexes, human, plasma, oral, analyte NBI-98854 in plasma, NBI-98854 (80 mg) + Ketoconazole (200 mg), N = 24, read-out: AUC0-tlast Mean (SD)", "result": 7100, "unit": "ng·h/mL"}]}, {"smiles": "COc1cc2c(cc1OC)C1CC(=O)C(CC(C)C)CN1CC2", "note": "(centres unmarked) [TBZ, Tetrabenazine, reference compound]", "values": [{"measurement": "inhibition of uptake through VMAT1", "setting": "human VMAT1 transporter", "result": "no significant inhibitory activity; also recorded: no significant effect"}]}, {"smiles": "COC(=O)[C@H]1[C@H]2C[C@@H]3c4[nH]c5cc(OC)ccc5c4CCN3C[C@H]2C[C@@H](OC(=O)c2cc(OC)c(OC)c(OC)c2)[C@@H]1OC", "note": "[reserpine, reference compound]", "values": [{"measurement": "inhibition of uptake through VMAT1", "setting": "human VMAT1 transporter", "result": "substantially inhibited uptake through VMAT1"}]}]}
